In publication PMC11233931, “Remodeling tumor‐associated macrophage for anti‐cancer effects by rational design of irreversible inhibition of mitogen‐activated protein kinase‐activated protein kinase 2” (MedComm, 2024) one finds inhibition data, which are given here for one compound.

Each structure is given as a SMILES string.

Holding throughout (experiment): Eurofins kinase selectivity profile against 380 other human recombinant kinases (Table S2)
Common to all, as to type: biochemical

The target in assay [1] is T1, 380 human recombinant protein kinases (Homo sapiens, UniProt Q16832).
T1 construct: purchased Eurofins (Celle Lévescault)
T1 sequence (Q16832 22-855): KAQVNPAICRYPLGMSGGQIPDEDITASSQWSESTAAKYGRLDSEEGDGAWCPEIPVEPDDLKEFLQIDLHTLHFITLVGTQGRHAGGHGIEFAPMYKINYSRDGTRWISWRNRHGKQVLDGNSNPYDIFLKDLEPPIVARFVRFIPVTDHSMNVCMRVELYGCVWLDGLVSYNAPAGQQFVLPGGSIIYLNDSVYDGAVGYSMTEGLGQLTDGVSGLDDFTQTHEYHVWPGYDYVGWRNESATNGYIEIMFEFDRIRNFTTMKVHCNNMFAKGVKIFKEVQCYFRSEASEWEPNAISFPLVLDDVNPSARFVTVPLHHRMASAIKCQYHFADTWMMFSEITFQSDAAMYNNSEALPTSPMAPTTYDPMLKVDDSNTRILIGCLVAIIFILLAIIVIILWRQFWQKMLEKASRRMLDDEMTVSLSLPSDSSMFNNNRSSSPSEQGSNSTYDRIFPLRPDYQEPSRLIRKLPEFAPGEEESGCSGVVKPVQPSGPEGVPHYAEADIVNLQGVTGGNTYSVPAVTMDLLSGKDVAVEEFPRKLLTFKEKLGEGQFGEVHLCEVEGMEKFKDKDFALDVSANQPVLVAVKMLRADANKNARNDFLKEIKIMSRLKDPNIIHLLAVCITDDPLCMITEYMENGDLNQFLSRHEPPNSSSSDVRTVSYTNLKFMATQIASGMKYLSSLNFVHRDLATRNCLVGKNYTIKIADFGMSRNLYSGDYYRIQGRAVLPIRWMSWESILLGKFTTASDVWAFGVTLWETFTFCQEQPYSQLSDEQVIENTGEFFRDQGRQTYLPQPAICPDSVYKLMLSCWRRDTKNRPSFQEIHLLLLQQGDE
The settings on record: DDR2(h), read-out: Inhibition rate. The method in brief: (§1)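 The inhibitor was sent to a contract lab and screened at various concentrations against 380 human recombinant protein kinases. This served as a counter-screen for MK2 specificity.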

The target of assay [2] is T2, 380 human recombinant protein kinases (Homo sapiens, UniProt Q8NE63).
T2 construct: purchased Eurofins (Celle Lévescault)
T2 sequence (Q8NE63 1-616): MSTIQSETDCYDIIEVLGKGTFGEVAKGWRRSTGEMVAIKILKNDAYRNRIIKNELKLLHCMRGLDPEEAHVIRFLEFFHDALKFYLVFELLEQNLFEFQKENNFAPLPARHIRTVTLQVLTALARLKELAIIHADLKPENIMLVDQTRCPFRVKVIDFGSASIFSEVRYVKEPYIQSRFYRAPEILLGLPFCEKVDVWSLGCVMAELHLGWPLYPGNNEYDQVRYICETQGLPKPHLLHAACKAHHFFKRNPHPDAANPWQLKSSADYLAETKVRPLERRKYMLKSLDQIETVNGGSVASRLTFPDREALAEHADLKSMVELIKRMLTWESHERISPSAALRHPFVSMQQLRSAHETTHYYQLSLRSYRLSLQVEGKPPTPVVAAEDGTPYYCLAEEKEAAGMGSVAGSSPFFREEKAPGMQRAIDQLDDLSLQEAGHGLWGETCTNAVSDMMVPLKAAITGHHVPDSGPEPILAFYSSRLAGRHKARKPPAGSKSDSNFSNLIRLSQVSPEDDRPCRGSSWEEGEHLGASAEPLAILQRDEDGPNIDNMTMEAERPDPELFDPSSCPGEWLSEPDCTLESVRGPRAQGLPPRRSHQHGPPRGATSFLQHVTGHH
As to conditions: HIPK4(h), read-out: Inhibition rate. The method in brief: as §1

Assay [3] deals with T3, 380 human recombinant protein kinases (Homo sapiens, UniProt Q9UBE8).
T3 construct: purchased Eurofins (Celle Lévescault)
T3 sequence (Q9UBE8 1-527): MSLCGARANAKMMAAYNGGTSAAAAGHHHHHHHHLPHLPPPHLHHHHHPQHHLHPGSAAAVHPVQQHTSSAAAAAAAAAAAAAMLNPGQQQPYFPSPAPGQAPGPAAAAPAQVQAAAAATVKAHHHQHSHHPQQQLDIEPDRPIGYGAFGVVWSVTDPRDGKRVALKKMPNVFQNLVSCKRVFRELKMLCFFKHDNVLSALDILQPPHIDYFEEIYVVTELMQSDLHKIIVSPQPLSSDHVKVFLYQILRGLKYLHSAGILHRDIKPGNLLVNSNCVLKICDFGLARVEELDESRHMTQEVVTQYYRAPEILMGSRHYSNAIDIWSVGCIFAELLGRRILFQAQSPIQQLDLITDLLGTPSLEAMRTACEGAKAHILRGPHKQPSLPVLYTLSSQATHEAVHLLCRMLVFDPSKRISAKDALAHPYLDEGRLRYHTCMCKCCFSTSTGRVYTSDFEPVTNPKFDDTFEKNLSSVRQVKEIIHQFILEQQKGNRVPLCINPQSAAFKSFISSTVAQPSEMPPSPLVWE
As to conditions: NLK(h), read-out: Inhibition rate. The method in brief:
as §1

Assay [4] addresses T4, 380 human recombinant protein kinases (Homo sapiens, UniProt P54646).
T4 construct: purchased Eurofins (Celle Lévescault)
As to conditions: AMPKα2(h), read-out: Inhibition rate. The method in brief:
as §1

In assay [5] the target is T5, 380 human recombinant protein kinases (Homo sapiens, UniProt Q5TCX8).
T5 construct: purchased Eurofins (Celle Lévescault)
T5 sequence (Q5TCX8 whole entry): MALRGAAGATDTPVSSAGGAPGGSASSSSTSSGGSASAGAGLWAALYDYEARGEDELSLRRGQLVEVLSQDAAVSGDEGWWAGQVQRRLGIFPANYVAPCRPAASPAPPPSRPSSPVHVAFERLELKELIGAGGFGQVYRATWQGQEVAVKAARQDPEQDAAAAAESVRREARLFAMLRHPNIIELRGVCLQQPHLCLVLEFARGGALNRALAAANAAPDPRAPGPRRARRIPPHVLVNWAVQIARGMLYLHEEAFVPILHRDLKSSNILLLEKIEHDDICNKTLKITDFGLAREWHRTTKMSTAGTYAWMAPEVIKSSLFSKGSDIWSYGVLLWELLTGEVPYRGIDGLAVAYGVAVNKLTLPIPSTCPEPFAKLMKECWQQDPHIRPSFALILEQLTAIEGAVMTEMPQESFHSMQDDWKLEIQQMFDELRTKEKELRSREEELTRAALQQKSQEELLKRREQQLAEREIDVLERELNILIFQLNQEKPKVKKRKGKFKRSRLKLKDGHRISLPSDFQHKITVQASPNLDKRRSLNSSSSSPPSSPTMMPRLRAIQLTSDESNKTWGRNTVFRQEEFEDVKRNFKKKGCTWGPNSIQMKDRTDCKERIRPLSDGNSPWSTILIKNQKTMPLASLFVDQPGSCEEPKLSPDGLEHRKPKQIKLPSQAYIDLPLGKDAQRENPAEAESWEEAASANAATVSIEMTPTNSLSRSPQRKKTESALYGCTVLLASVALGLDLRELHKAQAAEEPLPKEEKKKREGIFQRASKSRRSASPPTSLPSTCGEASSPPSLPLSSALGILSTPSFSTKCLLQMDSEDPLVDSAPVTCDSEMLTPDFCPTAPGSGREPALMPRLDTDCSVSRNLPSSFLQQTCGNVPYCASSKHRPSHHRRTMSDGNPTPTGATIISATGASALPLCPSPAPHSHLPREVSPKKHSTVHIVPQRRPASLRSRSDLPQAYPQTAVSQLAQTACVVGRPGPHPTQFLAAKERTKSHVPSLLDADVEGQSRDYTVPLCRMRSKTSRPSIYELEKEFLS
As to conditions: MLK4(h), read-out: Inhibition rate. In outline:
as §1

T4 sequence (P54646 whole entry): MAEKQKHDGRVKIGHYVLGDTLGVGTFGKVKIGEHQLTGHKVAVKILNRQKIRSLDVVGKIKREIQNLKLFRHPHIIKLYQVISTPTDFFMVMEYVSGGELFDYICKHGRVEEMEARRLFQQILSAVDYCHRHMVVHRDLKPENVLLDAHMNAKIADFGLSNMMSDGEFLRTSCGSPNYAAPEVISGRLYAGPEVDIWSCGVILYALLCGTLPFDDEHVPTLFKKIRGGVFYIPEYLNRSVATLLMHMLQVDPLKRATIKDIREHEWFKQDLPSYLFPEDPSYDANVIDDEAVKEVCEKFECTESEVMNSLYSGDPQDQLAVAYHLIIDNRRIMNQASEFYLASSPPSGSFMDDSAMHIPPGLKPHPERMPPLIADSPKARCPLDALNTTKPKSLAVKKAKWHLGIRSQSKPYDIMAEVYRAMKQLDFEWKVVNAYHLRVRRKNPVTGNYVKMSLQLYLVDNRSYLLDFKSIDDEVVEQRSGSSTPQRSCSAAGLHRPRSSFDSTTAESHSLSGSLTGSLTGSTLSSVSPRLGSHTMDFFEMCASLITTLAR

In the case of `C=CC(=O)Nc1cc(-c2cc(-c3cc4c([nH]3)CCNC4=O)ccn2)ccc1OC(F)(F)F` [compound 11], the inhibition at 0.01 µM in assay [1] (10 nM) was -7%; in assay [2] (10 nM), -23%; in assay [3] (10 nM), 6%; in assay [4] (10 nM), 3%; in assay [5] (10 nM), -2%. The inhibition at 0.1 µM was -10% in assay [1] (100 nM); -10% in assay [2] (100 nM); 16% in assay [3] (100 nM); 11% in assay [4] (100 nM); -2% in assay [5] (100 nM). Moreover, the inhibition at 1 µM was -10% in assay [1] (1000 nM); 23% in assay [2] (1000 nM); 42% in assay [3] (1000 nM); 43% in assay [4] (1000 nM); -3% in assay [5] (1000 nM).

Usually inhibition stands for the relative decrease from the control value, in per cent.
